What was measured:
Assay type in all cases: cell-based
HCV replicon [1] = test: HCV Replicon Assay (luciferase, 5-2 Luc replicon cells); conditions: 5-2 Luc replicon cells (Huh7), 24-48 hours with compound, luciferase counts
How it was run: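 Huh7-derived 5-2 Luc replicon cells were seeded at 5000-7500 cells/well, grown 24 h at 37° C. and 5% CO2, then exposed to serial compound concentrations for 24-48 hours.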

HCV replicon [2] = test: TaqMan RT-PCR Assay (9-13 replicon cells); conditions: 24-48 hours with compound
Method: Actively dividing 9-13 replicon cells were seeded at the density of 3×10^4 cells/well in the volume of 1 ml/well into 24 well plate(s). The cells were then incubated at 37° C. and 5% CO2 for 24
Various concentrations of compounds (in the volume of 10 μl) were added into each well 24 hours after seeding the cells. The cells were incubated with the compounds for another 24-48 hours.
After incubating the 9-13 replicon cells with the compounds for 24-48 hours, media were aspirated off and RNA samples were prepared from each well.
TaqMan® (Roche Molecular Systems) one step RT-PCR was performed using the RNA samples according to the manufacturer's manual. Briefly, properly diluted RNA sample, upstream primer, downstream primer, FAM-labeled probe oligo were mixed and water was added to make up the volume to 25 μl. Equal volume of 2× TaqMan Master Mix were added and the reaction was performed in an ABI Prism 7700 Sequence Detector (Applied Biosystems).

HCV replicon [3] = test: Immunoblotting Assay (9-13 replicon cells); conditions: 9-13 replicon cells (Huh7), 48 hours with compound
Method: Actively dividing 9-13 replicon cells (Huh7 cells comprising an HCV replicon) were seeded at the density of 1×10^5 cells/well in the volume of 2 ml/well into 6 well plate(s). The cells were then incubated at 37° C. and 5% CO2 for 24 hours.
Various concentrations of compounds (in the volume of 10 μl) were added into each well 24 hours after seeding the cells. The cells were incubated with the compounds for another 48 hours.
Protein samples were prepared from the cultured cells and resolved on a SDS-PAGE gel.
After electrophoresis, the protein samples on the SDS-PAGE gel were transferred to a nitrocellulose membrane.
The membrane was blocked with 5% non-fat milk in PBS for 1 hr at room temperature.
Primary antibody incubation was performed for 1 hour at room temperature before the membrane was washed for 3 times with PBST (PBS plus 0.1% Tween 20), 15 minutes each.
Horse Radish Peroxidase conjugated secondary antibody incubation was performed for 1 hour at room temperature before the membrane was washed for 3 times with PBST (PBS plus 0.1% Tween 20), 15 minutes each.
The membrane was then soaked in substrate solution (Pierce) and exposed to a film.

SMILES	Activity (concentration of inhibitory activity) (HCV replicon [1])	Activity (concentration of inhibitory activity) (HCV replicon [2])	Activity (concentration of inhibitory activity) (HCV replicon [3])
Cc1cc2cc(NC(=O)C3CCCC3)ccc2n1C(=O)c1c(Cl)cccc1Cl [Compound 16a-1, 5-Cyclopentanecarbonylamino-1-(2′,6′-dichlorobenzoyl)-2-methylindole]	a (“a” indicates inhibitory activity at a concentration of less than 10 micromolar)	a (“a” indicates inhibitory activity at a concentration of less than 10 micromolar)	
CC(C)(C)c1cc2cc(NC(=O)c3cccs3)ccc2[nH]1 [Compound 281]	a (“a” indicates inhibitory activity at a concentration of less than 10 micromolar)		a (“a” indicates inhibitory activity at a concentration of less than 10 micromolar)

— patent US20050215614A1, “Substituted indoles and their use as hcv inhibitors” (Rigel Pharmaceuticals, Inc., priority 2003, published 2005)
